Experimental data taken from ChEMBL document CHEMBL3046362, “Synthesis, antioxidant evaluation, and quantitative structureactivity relationship studies of chalcones” (Med Chem Res, 2011).
The source made the active and inactive calls. The rule behind the calls is not given here.

How the values were obtained:
Format in all cases: functional
[1] = system: Radical scavenging activity; assay: Antioxidant activity assessed as DPPH radical scavenging activity at 50 ug/ml after 20 min
[2] = Antioxidant activity assessed as reducing power of potassium ferricyanide at 50 ug/ml after 20 min by spectrophotometry; parameters: scale not given: the % may be the effect or the level left
[3] = Antioxidant activity assessed as hydrogen peroxide radical scavenging activity at 50 ug/ml after 10 min by spectrophotometry
[4] = Antioxidant activity assessed as superoxide radical scavenging activity at 50 ug/ml after 10 min by NBT reduction assay
[5] = system: Radical scavenging activity; assay: Antioxidant activity assessed as DPPH radical scavenging activity at 100 to 250 ug/ml by EPR spectroscopy

Row | SMILES | Activity [1] | Activity [2] | Activity [3] | Activity [4] | Activity [5]
1 | COc1cc(/C=C/C(=O)c2ccccc2)cc(OC)c1OC | 15.6% | 40.6% | 22.7% | 28.9% | –
2 | COc1ccc(/C=C/C(=O)c2cccc([N+](=O)[O-])c2)c(OC)c1 | 7.9% | 26.5% | 5.91% | 23.1% | –
3 | COc1ccccc1/C=C/C(=O)c1cccc([N+](=O)[O-])c1 | 6.93% | 22.4% | 24.3% | 5.39% | –
4 | COc1ccc(/C=C/C(=O)c2cccc(O)c2)cc1 | 35.7% | 37.5% | 42.8% | 62% | Active
5 | CN(C)c1ccc(/C=C/C(=O)c2ccc(Cl)cc2Cl)cc1 | 12.9% | 22% | 32.6% | 10.9% | –
6 | COc1ccc(/C=C/C(=O)c2ccc(Cl)cc2Cl)cc1OC | 15.7% | 33.8% | 23.8% | 32.6% | –
7 | COc1ccc(/C=C/C(=O)c2ccccc2)cc1 | 5.34% | 21.2% | 12.3% | 21.3% | –
8 | CSc1ccc(/C=C/C(=O)c2ccc(C)cc2)cc1 | 3.16% | 23.8% | 31.7% | 23.1% | –
9 | O=C1O[C@H]([C@@H](O)CO)C(O)=C1O | 28% | 22.6% | 78.3% | 82.9% | –
10 | CSc1ccc(/C=C/C(=O)c2ccc(Br)cc2)cc1 | 18% | 18.8% | 49.7% | 18% | –
11 | COc1ccc(C(=O)/C=C/c2ccc(SC)cc2)cc1 | 2.64% | 24.3% | 29.5% | 17.8% | –
12 | O=C(/C=C/c1ccccc1)c1ccccc1 | 18.6% | 42.4% | 25.4% | 32.6% | –
13 | CSc1ccc(/C=C/C(=O)c2ccc([N+](=O)[O-])cc2)cc1 | 15.9% | 3.17% | 4.61% | 17.4% | –
14 | CSc1ccc(/C=C/C(=O)c2ccc(Cl)cc2)cc1 | 23.2% | 30.9% | 43.5% | 41.4% | –
15 | COc1ccc(/C=C/C(=O)c2cccc([N+](=O)[O-])c2)cc1OC | 15.4% | 43.5% | 35.9% | 53.4% | –
16 | CSc1ccc(/C=C/C(=O)c2ccc(Cl)cc2Cl)cc1 | 4.07% | 10.1% | 17.4% | 30.9% | –
17 | COc1ccccc1/C=C/C(=O)c1ccc([N+](=O)[O-])cc1 | 7% | 32.8% | 61.3% | 34.5% | –
18 | CSc1ccc(/C=C/C(=O)c2ccccc2)cc1 | 10.2% | 19.8% | 4.26% | 27.4% | –
19 | CN(C)c1ccc(/C=C/C(=O)c2cccc([N+](=O)[O-])c2)cc1 | 18.6% | 28.6% | 17.4% | 39% | –
20 | CN(C)c1ccc(/C=C/C(=O)c2ccccc2)cc1 | 8.08% | 9.52% | 12.1% | 13.8% | –
21 | Cc1cc(C(C)(C)C)c(O)c(C(C)(C)C)c1 | 26.4% | 56.1% | 42.6% | 79.1% | –
22 | CSc1ccc(/C=C/C(=O)c2ccccc2O)cc1 | 15.4% | 46.7% | 33.3% | 50.2% | –
23 | CSc1ccc(/C=C/C(=O)c2ccc(O)cc2)cc1 | 28.9% | 46% | 23.8% | 52.6% | –
24 | CSc1ccc(/C=C/C(=O)c2cccc([N+](=O)[O-])c2)cc1 | 15.3% | 27.2% | 46.4% | 39.7% | –
25 | COc1ccc(/C=C/C(=O)c2ccc(C)cc2)cc1 | 1.3% | 23.1% | 4.54% | 15.4% | –
26 | COc1ccccc1/C=C/C(=O)c1ccccc1 | 0.98% | 21.8% | 4.54% | 18.6% | –
27 | CSc1ccc(/C=C/C(=O)c2cccc(O)c2)cc1 | 21.2% | 51.6% | 28.7% | 53.3% | –
